This note sets out measurements from US20260166122A1, “USE OF MICROPEPTIDE MIAC” (NANJING ANJI BIOTECHNOLOGY CO., LTD, priority 2023, published 2026).

Read-outs that look alike come from different tables or passages of the source. Ends that are not written are not given here.

Assay [1] concerns human gastric carcinoma cells BGC-803. The assay is classed as cell-based. To be noted: 72 h.
Assay [2] deals with human lung giant cell carcinoma cells 95-D. The assay is classed as cell-based. The following applies: 72 h.

As for “MERAGVPGFSPRRSSVEAKMQSTSCSVRKSSTVTAWPAVVLLLSWGQRRGG [MIAC, micropeptide inhibiting actin cytoskeleton]”, the OD in assay [1] (BGC-803, 50 μM) was 1.379 ± 0.025; in assay [1] (BGC-803, 100 μM), 0.960 ± 0.059; in assay [1] (BGC-803, 200 μM), 0.715 ± 0.015; in assay [2] (50 μM) it was 1.188 ± 0.022; in assay [2] (100 μM), 0.863 ± 0.054; in assay [2] (200 μM) it was 0.341 ± 0.010.
